Laboratory results from patent US8735386B2, “Aminopyrazoloquinazolines” (Boehringer Ingelheim International GmbH, priority 2010, dated 2014).

tested on: TC-71 (Ewing's sarcoma) cells; experiment: cells; details: Homo sapiens, TC-71, 72 h, read-out: EC50 on TC-71 cells
Procedure: Cell Proliferation Assays
Published scientific data has described that interference with the Insulin-like Growth Factor-1 Receptor (IGF-1R) signaling pathway reduces the proliferation of TC-71 cells. Therefore TC-71 cells served as a positive control cell line for monitoring the activity of compounds against IGF-1R-mediated cell proliferation.
2000 TC-71 cells or 1000 HCT 116 cells were seeded per well in 180 μL IMDM+10% foetal calf serum (FCS)+penicillin/streptomycin into 96-well microtitre plates. The plates were placed in a cell culture incubator (37° C. in a humidified atmosphere of 95% […]/5 CO2) overnight. The following day, serial dilutions of compounds, prepared in duplicates, were transferred onto the cell layers (controls without compound). The cells were cultivated for a further 72 h in the cell culture incubator. 20 μL of Alamar Bluet™ (Serotec Ltd, Düsseldorf, Germany) was added to each well and the plates incubated for 7 h in the cell culture incubator.

SMILES	EC50
CC1Cc2nn(C)c(-c3ccccc3Cl)c2-c2nc(Nc3ccn(C(C)C)n3)ncc21 (racemic) [Compound I-40, 9-(2-chlorophenyl)-5,8-dimethyl-N-(1-propane-2-ylpyrazol-3-yl)-5,6-dihydropyrazolo[3,4-h]quinazolin-2-amine]	< 3000 nM
CC1Cc2nn(C)c(-c3ccccc3Cl)c2-c2nc(Nc3ccn(C)n3)ncc21 (racemic) [Compound I-42, 9-(2-chlorophenyl)-5,8-dimethyl-N-(1-methylpyrazol-3-yl)-5,6-dihydropyrazolo[3,4-h]quinazolin-2-amine]	< 3000 nM
COc1cc(N2CCN(C)CC2)ccc1Nc1ncc2c(n1)-c1c(nn(C)c1-c1ccccc1Cl)CC2C (racemic) [Compound I-97, 9-(2-chlorophenyl)-N-[2-methoxy-4-(4-methylpiperazin-1-yl)phenyl]-5,8-dimethyl-5,6-dihydropyrazolo[3,4-h]quinazolin-2-amine]	< 3000 nM
COc1cc(C(=O)NC2CCN(C)CC2)ccc1Nc1ncc2c(n1)-c1c(nn(C)c1-c1ccccc1Cl)CC2C (racemic) [Compound I-157, 4-[[9-(2-chlorophenyl)-5,8-dimethyl-5,6-dihydropyrazolo[3,4-h]quinazolin-2-yl]amino]-3-methoxy-N-(1-methylpiperidin-4-yl)benzamide]	< 3000 nM
CC1Cc2nn(C)c(Cc3ccccc3Cl)c2-c2nc(Nc3cnn(C4CCNCC4)c3)ncc21 (racemic) [IV-2a]	< 3000 nM
COC(=O)c1ccc(Nc2ncc3c(n2)-c2c(nn(C)c2-c2ccccc2Cl)CC3)c(OC)c1 [Compound I-3]	< 3000 nM
Cn1nccc1Nc1ncc2c(n1)-c1c(nn(C)c1-c1ccccc1Cl)CC2 [Compound I-23]	< 3000 nM
CCn1ccc(Nc2ncc3c(n2)-c2c(nn(C)c2-c2ccccc2Cl)CC3)n1 [Compound I-30, 9-(2-chlorophenyl)-N-(1-ethylpyrazol-3-yl)-8-methyl-5,6-dihydropyrazolo[3,4-h]quinazolin-2-amine]	< 3000 nM
Cc1cc(Nc2ncc3c(n2)-c2c(nn(C)c2-c2ccccc2Cl)CC3)nn1C [Compound I-109]	< 3000 nM
COc1cc(C(=O)NC2CCN(C)CC2)ccc1Nc1ncc2c(n1)-c1c(nn(C)c1-c1ccccc1Cl)CC2 [Compound I-112, 4-[[9-(2-chlorophenyl)-8-methyl-5,6-dihydropyrazolo[3,4-h]quinazolin-2-yl]amino]-3-methoxy-N-(1-methylpiperidin-4-yl)benzamide]	< 3000 nM
Cc1cccc(-c2c3c(nn2C)CCc2cnc(Nc4ccccc4)nc2-3)c1Cl [Compound I-147]	< 3000 nM
COCCn1ccc(Nc2ncc3c(n2)-c2c(nn(C)c2-c2ccc(Cl)cc2)CC3)n1 [Compound I-171, 9-(4-chlorophenyl)-N-[1-(2-methoxyethyl)pyrazol-3-yl]-8-methyl-5,6-dihydropyrazolo[3,4-h]quinazolin-2-amine]	< 3000 nM
CCn1ccc(Nc2ncc3c(n2)-c2c(nn(C)c2-c2sccc2C)CC3)n1 [Compound I-172]	< 3000 nM
Cc1ccsc1-c1c2c(nn1C)CCc1cnc(Nc3ccn(CCN(C)C)n3)nc1-2 [Compound I-189, N-[1-(2-dimethylaminoethyl)pyrazol-3-yl]-8-methyl-9-(3-methylthiophen-2-yl)-5,6-dihydropyrazolo[3,4-h]quinazolin-2-amine]	< 3000 nM
CCn1ccc(Nc2ncc3c(n2)-c2c(nn(C)c2-c2cccc(OC)c2)CC3)n1 [Compound I-293]	< 3000 nM
Cc1cc(Nc2ncc3c(n2)-c2c(nn(C)c2-c2ccc(OC(F)F)cc2)CC3)nn1C [Compound I-294]	< 3000 nM
COc1cc(C(=O)O)ccc1Nc1ncc2c(n1)-c1c(nn(C)c1-c1ccccc1Cl)CC2 [II-18]	< 3000 nM
COc1cc(C(=O)NC2CC(N3CCN(C)CC3)C2)ccc1Nc1ncc2c(n1)-c1c(nn(C)c1-c1ccccc1Cl)CC2 (stereo not drawn) [III-38]	< 3000 nM
COc1cc(C(=O)NC2CCN(C)CC2)ccc1Nc1ncc2c(n1)-c1c(nn(C)c1-c1sccc1C)CC2 [III-105]	< 3000 nM
COc1cc(C(=O)NC2CCN(C)CC2)ccc1Nc1ncc2c(n1)-c1c(nn(C)c1Cc1c(Cl)cccc1Cl)CC2 [III-107]	< 3000 nM
CC1Cc2nn(C)c(Cc3ccccc3Cl)c2-c2nc(Nc3cnn(C4CCN(C5CCOCC5)CC4)c3)ncc21 (stereo not drawn) [IV-9a]	< 3000 nM
CC(=O)N1CCC(N2CCC(n3cc(Nc4ncc5c(n4)-c4c(nn(C)c4Cc4ccccc4Cl)CC5C)cn3)CC2)CC1 (stereo not drawn) [IV-9b]	< 3000 nM
CC1Cc2nn(C)c(Cc3ccccc3Cl)c2-c2nc(Nc3cnn(C4CCN(CCO)CC4)c3)ncc21 (stereo not drawn) [IV-9c]	< 3000 nM

biological target: cytoplasmic kinase domain of human IGF-1R (IGF-1R-GST) (Homo sapiens (Human), UniProt P08069); experiment: Insulin-like growth factor-1 receptor (IGF-1R)-kinase assay (DELFIA); format: biochemical; details: inhibition of IGF-1R-kinase activity, read-out: IGF1R IC50
Sequence (P08069 964-1367 limits assumed): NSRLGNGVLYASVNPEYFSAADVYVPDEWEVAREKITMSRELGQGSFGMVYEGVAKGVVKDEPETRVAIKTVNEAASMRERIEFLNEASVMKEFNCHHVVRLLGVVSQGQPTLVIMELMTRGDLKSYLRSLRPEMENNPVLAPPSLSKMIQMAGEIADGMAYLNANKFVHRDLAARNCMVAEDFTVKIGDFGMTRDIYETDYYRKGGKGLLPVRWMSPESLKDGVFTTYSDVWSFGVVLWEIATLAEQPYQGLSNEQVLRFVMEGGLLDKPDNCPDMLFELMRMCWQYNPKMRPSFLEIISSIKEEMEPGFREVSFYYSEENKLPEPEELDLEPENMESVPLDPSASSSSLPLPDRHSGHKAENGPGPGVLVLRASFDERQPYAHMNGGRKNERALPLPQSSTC
Procedure: Insulin-Like Growth Factor-1 Receptor (IGF-1R)-Kinase Assay
The kinase activity is measured by DELFIA® assay (dissociation-enhanced lanthanide fluorescence immunoassay, Perkin Elmer). […] Enzyme activity is measured in the presence of substances and a control substance. Poly-glutamate-tyrosine peptide (pEY, Sigma Aldrich) and biotinylated pEY (bio-pEY) are used as reaction substrates.
After 40 min at RT the reactions are stopped with 50 μL of stop solution (250 mM EDTA, 20 mM HEPES pH 7.4). 90 μL from each reaction are transferred onto streptavidin-coated 96-well plates. After 120 min incubation at RT the plates are washed three times with 200 μL phosphate-buffered saline (PBS) per well. The plates are incubated for 60 min with 100 μL of europium-coupled antibody against phospho-tyrosine (diluted 1/2000 in Perkin Elmer DELFIA assay buffer) per well. The plates are washed three times with 200 μL per well of DELFIA washing buffer. 100 μL DELFIA Enhancement Solution (Perkin Elmer) is added to each well, and the plates are incubated for 10 min. The fluorescence signal is measured with a Wallac Victor TRF Reader. IC50 values for the inhibition of the IGF-1R-kinase activity are calculated using the programmes Fifty (Version 2) and GraphPad (Version 3.0).

SMILES	IC50
CCOc1cc(C(=O)NC)ccc1Nc1ncc2c(n1)-c1c(nn(C)c1-c1ccccc1)CC2 [III-3]	92 nM
